Key:
[1] = molecular target: BRD9 bromodomain (Homo sapiens (Human), UniProt Q9H8M2); test: BRD9 bromodomain TR-FRET competition binding assay; conditions: Table 4; competition with biotinylated ligand, 3 nM Flag-BRD9, 90 minutes
Protocol: Procedure: His-Flag-BRD9 (P133-K239; Swiss Prot Q9H8M2; SEQ ID NO:1 mgsshhhhhhenlyfq/gdykddddkgslevlfqg/[…] […]) was cloned, expressed, purified, and then treated with TEV protease. Cleaved His tag was removed by purification. The binding of a biotinylated small molecule ligand of BRD9 was assessed via the LANCE® TR-FRET platform (PerkinElmer), and the compounds were assayed for inhibitory activity against this interaction.
A mixture of biotinylated-ligand and SureLight™ Allophycocyanin-Streptavidin (APC-SA, PerkinElmer AD0201) in 50 mM HEPES (pH 7.4), 50 mM NaCl, 1 mM TCEP (pH 7), 0.01% (v/v) Tween-20, 0.01% (w/v) bovine serum albumin was added to a white 384-well PerkinElmer Proxiplate Plus plate. DMSO or 3-fold serially diluted compounds were then added to the Proxiplate followed by addition of Flag-BRD9. After a 10-minute incubation at room temperature, Eu-W1024 anti-FLAG (PerkinElmer, AD0273) was added. The final reaction mixture that contained 3.75 nM biotinylated ligand, 3 nM Flag-BRD9, 7.5 nM SureLight™ Allophycocyanin-Streptavidin, and 0.2 nM Eu-W1024 anti-FLAG was incubated at room temperature for 90 minutes.
Results: The plates were then read on a PerkinElmer Envision plate reader to determine the ratio of emission at 665 nm over 615 nm. […]

[2] = molecular target: Nanoluciferase-BRD9 fusion protein (Homo sapiens (Human), UniProt Q9H8M2); test: SYO1 BRD9 NanoLuc degradation assay; format: cell-based; conditions: Table 5A, SYO-1 cells expressing 3×FLAG-NLuc-BRD9, 6 hours; for DC50: read-out: SYO1 BRD9-NanoLuc degradation IC50
Sequence of Nanoluciferase-BRD9 fusion protein (Q9H8M2 whole entry, the tested form may be a part): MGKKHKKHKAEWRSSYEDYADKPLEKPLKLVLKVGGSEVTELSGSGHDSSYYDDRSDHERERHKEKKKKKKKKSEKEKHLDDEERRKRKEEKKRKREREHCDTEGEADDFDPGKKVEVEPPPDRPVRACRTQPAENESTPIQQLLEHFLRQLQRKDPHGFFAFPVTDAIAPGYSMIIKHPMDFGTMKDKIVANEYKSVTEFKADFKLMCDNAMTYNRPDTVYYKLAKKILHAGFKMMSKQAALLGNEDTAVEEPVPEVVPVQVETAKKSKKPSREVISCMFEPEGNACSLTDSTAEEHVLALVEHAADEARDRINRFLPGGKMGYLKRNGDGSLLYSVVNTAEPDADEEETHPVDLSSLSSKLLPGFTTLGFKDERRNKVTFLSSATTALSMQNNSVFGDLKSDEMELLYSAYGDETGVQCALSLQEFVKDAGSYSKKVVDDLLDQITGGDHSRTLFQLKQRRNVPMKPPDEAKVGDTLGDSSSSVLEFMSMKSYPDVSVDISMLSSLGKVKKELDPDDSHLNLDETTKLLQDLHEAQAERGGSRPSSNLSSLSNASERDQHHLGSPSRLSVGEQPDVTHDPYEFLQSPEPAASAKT
Method in brief: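 Degradation was read as loss of nanoluciferase signal (Nano-Glo) after 6 h compound exposure in a stable SYO-1 line carrying 3×FLAG-NLuc-BRD9 (8000 cells/well). Normalised between DMSO (high) and a 1 μM known BRD9 degrader (low).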

Sequence of BRD9 bromodomain (Q9H8M2 133-239): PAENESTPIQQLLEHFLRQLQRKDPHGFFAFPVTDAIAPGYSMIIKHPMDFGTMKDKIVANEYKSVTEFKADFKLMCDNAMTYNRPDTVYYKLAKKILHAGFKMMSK

| IC50 [1] | IC50 [2] | SMILES | DC50 [2] |
| --- | --- | --- | --- |
| 10 to 100 nM | < 10 nM | COc1cc(-c2cn(C)c(=O)c3cnccc23)cc(OC)c1CN1CC[C@@H]1C(=O)NCCCCCCCCNc1cccc2c1C(=O)N(C1CCC(=O)NC1=O)C2=O (stereo partly shown) [Compound D10] |  |
| < 10 nM |  | COc1cc(-c2cn(C)c(=O)c3cnccc23)cc(OC)c1CN1CC(C)(C(=O)NCCCCCCCCNc2cccc3c2C(=O)N(C2CCC(=O)NC2=O)C3=O)C1 (stereo not shown) [Compound D13, 1-(2,6-dimethoxy-4-(2-methyl-1-oxo-1,2-dihydro-2,7-naphthyridin-4-yl)benzyl)-N-(8-((2-(2,6-dioxopiperidin-3-yl)-1,3-dioxoisoindolin-4-yl)amino)octyl)-3-methylazetidine-3-carboxamide] | < 10 nM |
| < 10 nM | < 10 nM | COc1cc(-c2cn(C)c(=O)c3cnccc23)cc(OC)c1CN1CC(C(=O)N(C)CCCCCCCCNc2cccc3c2C(=O)N(C2CCC(=O)NC2=O)C3=O)C1 (stereo not shown) [Compound D14, 1-[[2,6-dimethoxy-4-(2-methyl-1-oxo-1,2-dihydro-2,7-naphthyridin-4-yl)phenyl]methyl]-N-(8-[[2-(2,6-dioxopiperidin-3-yl)-1,3-dioxo-2,3-dihydro-1H-isoindol-4-yl]amino]octyl)-N-methylazetidine-3-carboxamide] |  |

The next lines start with the compound.

| SMILES | IC50 [1] | IC50 [2] | DC50 [2] |
| --- | --- | --- | --- |
| COc1cc(-c2cn(C)c(=O)c3cnccc23)cc(OC)c1CN1CC(C(=O)NCCCCCCCCNc2cccc3c2C(=O)N(C2CCC(=O)N(C)C2=O)C3=O)C1 (stereo not shown) [Compound D8, 1-[[2,6-dimethoxy-4-(2-methyl-1-oxo-1,2-dihydro-2,7-naphthyridin-4-yl)phenyl]methyl]-N-(8-[[2-(1-methyl-2,6-dioxopiperidin-3-yl)-1,3-dioxo-2,3-dihydro-1H-isoindol-4-yl]amino]octyl)azetidine-3-carboxamide formic acid] | < 10 nM |  | > 1000 nM |
| COc1cc(-c2cn(C)c(=O)c3cnccc23)cc(OC)c1CN1CC(CC(=O)NCCCCCCCCNc2cccc3c2C(=O)N(C2CCC(=O)NC2=O)C3=O)C1 (stereo not shown) [Compound D9, 2-(1-[[2,6-dimethoxy-4-(2-methyl-1-oxo-1,2-dihydro-2,7-naphthyridin-4-yl)phenyl]methyl]azetidin-3-yl)-N-(8-[[2-(2,6-dioxopiperidin-3-yl)-1,3-dioxo-2,3-dihydro-1H-isoindol-4-yl]amino]octyl)acetamide formic acid] | < 10 nM | < 10 nM |  |
| COc1cc(-c2cn(C)c(=O)c3cnccc23)cc(OC)c1CN1CC[C@H]1C(=O)NCCCCCCCCNc1cccc2c1C(=O)N(C1CCC(=O)NC1=O)C2=O (stereo partly drawn) [Compound D11, (2S)-1-[[2,6-dimethoxy-4-(2-methyl-1-oxo-2,7-naphthyridin-4-yl)phenyl]methyl]-N-(8-[[2-(2,6-dioxopiperidin-3-yl)-1,3-dioxoisoindol-4-yl]amino]octyl)azetidine-2-carboxamide] | 10 to 100 nM | < 10 nM |  |
| COc1cc(-c2cn(C)c(=O)c3cnccc23)cc(OC)c1CN1CC(S(=O)(=O)NCCCCCCCCNc2cccc3c2C(=O)N(C2CCC(=O)NC2=O)C3=O)C1 (stereo not shown) [Compound D12, 1-[[2,6-dimethoxy-4-(2-methyl-1-oxo-1,2-dihydro-2,7-naphthyridin-4-yl)phenyl]methyl]-N-(8-[[2-(2,6-dioxopiperidin-3-yl)-1,3-dioxo-2,3-dihydro-1H-isoindol-4-yl]amino]octyl)azetidine-3-sulfonamide] | < 10 nM | < 10 nM |  |
| COc1cc(-c2cn(C)c(=O)c3cnccc23)cc(OC)c1CN1CC(C(=O)N(C)CCCCCNc2cccc3c2C(=O)N(C2CCC(=O)NC2=O)C3=O)C1 (stereo not shown) [Compound D15, 1-[[2,6-dimethoxy-4-(2-methyl-1-oxo-1,2-dihydro-2,7-naphthyridin-4-yl)phenyl]methyl]-N-(5-[[2-(2,6-dioxopiperidin-3-yl)-1,3-dioxo-2,3-dihydro-1H-isoindol-4-yl]amino]pentyl)-N-methylazetidine-3-carboxamide formic acid] | < 10 nM | < 10 nM |  |
